Test results: patent publication US20250333745A1, “METHODS AND COMPOSITIONS FOR TREATMENT OF POLYCYSTIC KIDNEY DISEASE” (Regulus Therapeutics Inc., priority 2016, published 2025)

Key:
Pkd2-KO mice = experiment: Efficacy in the Pkd2-KO model of PKD; assay type: in vivo, mouse; conditions: for BUN (mean) / Cystic Index (mean) / KW/BW Ratio (mean) / Serum Creatinine (mean): 20 mg/kg s.c. on days 10, 11, 12, 19 of age, sacrificed at 28 days
Excerpt: (§1) Two experimental models of PKD were used to evaluate efficacy. Pkd2-KO mice spontaneously develop polycystic kidney disease, and were used as a model of ADPKD. See Patel et al., PNAS, 2013; 110 (26): 10765-10770. Pcy mice bearing a mutation in Nphp3 spontaneously develop polycystic kidney disease, with a slower progression of disease than that observed in the Pkd2-KO mice. The Pcy model is used as a model of nephronophthisis. See Happe and Peters, Nat. Rev. Nephrol., 2014; 10:587-601.
RG4326 was tested in the Pkd2-KO mouse model of ADPKD. This model is also referred to as the PKD2-KO model. Wild-type mice were used as control mice. An oligonucleotide complementary to a miRNA unrelated to miR-17 was used as a treatment control for specificity (RG5124).
On each of days 10, 11 12, and 19 of age, sex-matched littermates of mice were administered a subcutaneous injection of RG4326 at a dose of 20 mg/kg (n=12), RG5124 at a dose of 20 mg/kg (n=12), tool anti-miR-17 at a dose of 20 mg/kg (n=12), or PBS (n=12). Mice were sacrificed at 28 days of age, and kidney weight, body weight, cyst index, serum creatinine level, and blood urea nitrogen (BUN) level were measured. BUN level is a marker of kidney function. A higher BUN level correlates with poorer kidney function, thus a reduction in BUN level is an indicator of reduced kidney injury and damage and improved function. Statistical significance was calculated by one-way ANOVA with Dunnett's multiple correction.
(§2) Cyst index is a histological measurement of cystic area relative to total kidney area. For this analysis, one kidney was perfused with cold PBS and 4% (wt/vol) paraformaldehyde and then harvested. Kidneys were fixed with 4% paraformaldehyde for 2 hours and then, embedded in paraffin for sectioning. Sagittal sections of kidneys were stained with hematoxylin and eosin (H&E). All image processing steps were automated and took place in freely available and open source software: An R1 script which used functions from the EBImage Bioconductor package2 and the ImageMagick3 suite of image processing tools. Kidney H&E images in Aperio SVS format were converted to TIFF images, and the first frame was retained for image analysis. First, the total kidney section area was calculated using image segmentation. Image segmentation was similarly used to find all internal structures including kidney cyst. A filter was applied to remove all objects less than a mean radius of three pixels. The cystic index is the image area associated with cysts divided by the total kidney areas. Cystic index was separately calculated for longitudinal and transverse kidney sections for each individual animal. Combined cystic index of individual animals were compared for each treatment groups.

Pcy mice = experiment: Efficacy in the Pcy model of PKD; assay type: in vivo, mouse; conditions: for BUN (mean) / Cystic Index (mean) / KW/BW Ratio (mean): 25 mg/kg s.c. for oligonucleotides, sacrificed at 15 weeks of age
Excerpt: as §1, §2
RG4326 was tested in the Pcy mouse model. Wild-type mice were used as control group. From four weeks of age, Pcy mice were treated once per week via subcutaneous injection with RG4326 at a dose of 25 mg/kg, tool anti-miR-17 at a dose of 25 mg/kg, control oligonucleotide RG5124 at a dose of 25 mg/kg, or PBS. Each treatment group contained 15 male mice. Three treatments were administered on […] days of age, and weekly thereafter at 6, 7, 8, 9, 10, 11, 12, 13, and 14 weeks of age. Also tested was tolvaptan, a vasopressin V2-receptor antagonist (VRA) that is prescribed to some patients with polycystic kidney disease. Mice were sacrificed at 15 weeks of age. Body weight was recorded. One kidney was extracted and weighed and the other processed for histological analysis to calculate cyst index as described for the study in the Pkhd1/cre; Pkd2^F/F. Blood urea nitrogen (BUN) level and serum creatinine level were measured. Statistical significance was calculated by one-way ANOVA with Dunnett's multiple correction.

miR-17 = miR-17 luciferase reporter assay in HeLa cells; assay type: cell-based; conditions: for Luciferase Fold Derepression: mean
Protocol: In vitro potency was evaluated using a luciferase reporter assay. A luciferase reporter plasmid for miR-17, with […] in the 3′-UTR of the luciferase gene. Compounds of longer lengths were selected if their maximum inhibition was greater than that of the tool anti-miR-17 compound. As shorter compounds, such as 9-mers, are typically not maximally active in the same assay conditions used for longer compounds, shorter compounds were selected based on maximum inhibition relative to appropriate control compounds. In this way, compounds that are diverse in both length and chemical composition were included in further testing.
One assay employed was the luciferase assay. […] Accordingly, the luciferase assay transfection conditions were optimized for short anti-miR-17 compounds, so that the inhibitory activity of the compounds could be measured.
The luciferase reporter plasmid for miR-17 contained a fully complementary miR-17 binding site in the 3′-UTR of the luciferase gene. HeLa cells were transfected with the microRNA mimic and its cognate luciferase reporter, followed by transfection with anti-miR-17 at doses of […], 3, 10, 30, 100, and 300 nM. At the end of the 24-hour transfection period, luciferase activity was measured. As shown in Table 2-1, RG4047, while not as potent as RG4326, inhibited miR-17 activity in a dose dependent manner. SD indicates standard deviation.
Additional in vitro assays were conducted to further explore the potency of RG4326. A luciferase reporter assay was used to test the ability of RG4326 to inhibit the miR-17 family members miR-17, miR-20a, miR-93, and miR-106b. A luciferase reporter plasmid for each of miR-20a, miR-93, and miR-106b was constructed, with a fully complementary microRNA binding site in the 3′-UTR of the luciferase gene. HeLa cells were transfected with the microRNA mimic and its cognate luciferase reporter, followed by transfection with anti-miR-17 at a dose of 100 nm. […] As RG4326 is 100% complementary to the other miR-17 family members not tested, miR-20b and […], it is expected to inhibit these microRNAs as well.

[1] = 0.001 nM anti-miR-17, 24-hour transfection
[2] = 3 nM anti-miR-17, 24-hour transfection
[3] = 10 nM anti-miR-17, 24-hour transfection
[4] = 30 nM anti-miR-17, 24-hour transfection
[5] = 100 nM anti-miR-17, 24-hour transfection
[6] = 300 nM anti-miR-17, 24-hour transfection
[7] = 20 mg/kg, not statistically significant

Compound | effect on KW/BW ratio, BUN and cyst index (in words) (Pkd2-KO mice; 20 mg/kg) | efficacy on KW/BW ratio, BUN or cyst index (in words) (Pcy mice) | Luciferase Fold Derepression (miR-17; [1]) | Luciferase Fold Derepression (miR-17; [2]) | Luciferase Fold Derepression (miR-17; [3]) | Luciferase Fold Derepression (miR-17; [4]) | Luciferase Fold Derepression (miR-17; [5]) | Luciferase Fold Derepression (miR-17; [6]) | BUN (mean) (Pkd2-KO mice) | Cystic Index (mean) (Pkd2-KO mice) | KW/BW Ratio (mean) (Pkd2-KO mice) | Serum Creatinine (mean) (Pkd2-KO mice) | BUN (mean) (Pcy mice) | Cystic Index (mean) (Pcy mice) | KW/BW Ratio (mean) (Pcy mice) | also measured
5′-CTGCACTGTAAGCACTTTG-3′ (all phosphorothioate, sugars by position and methylation of C not given here; DNA, 2'-MOE and S-cEt sugars) [Tool anti-miR-17, reference compound] | no statistically significant changes were observed | did not result in statistically significant reductions | – | – | – | – | – | – | – | – | – | – | – | – | – | –
COC1C(OP(=O)(S)OC[C@H]2O[C@@H](n3cnc4c(N)ncnc43)C(F)C2OP(=O)(S)OC[C@H]2O[C@@H](n3ccc(N)nc3=O)C(F)C2OP(=O)(S)OC[C@H]2O[C@@H](n3ccc(=O)[nH]c3=O)C(F)C2OP(=O)(S)OC[C@H]2O[C@@H](n3ccc(=O)[nH]c3=O)C(OC)C2OP(=O)(S)OC[C@]23O[C@@H](n4ccc(=O)[nH]c4=O)C(O[C@H]2C)C3OP(=O)(S)OC[C@]23O[C@@H](n4cnc5c(=O)[nH]c(N)nc54)C(O[C@H]2C)C3O)[C@@H](COP(=O)(S)OC2C3O[C@@H](C)[C@]2(COP(=O)(S)OC2C4O[C@@H](C)[C@]2(CO)O[C@H]4n2cnc4c(N)ncnc42)O[C@H]3n2cnc3c(=O)[nH]c(N)nc32)O[C@H]1n1ccc(N)nc1=O (stereo in doubt) [RG4326, ASGSCMAFCFUFUMUSGS] | – | – | 1 | 5.3 | 10.4 | 14.1 | 13.9 | 11.7 | 72.92 mg/dL | 50.3 | 40.98 mg/g | 0.26 mg/dL | 19.7 | 0.16 | 18.1 | Mean luciferase fold derepression, miR-17 (miR-17; anti-miR-17 at 100 nm): 13.1; Mean serum creatinine levels lower than in PBS mice (Pkd2-KO mice; [7]): 18%; mean reduction in cyst index compared to PBS (Pkd2-KO mice; [7]): 12%; mean KW/BW ratio lower than in PBS mice (Pkd2-KO mice; 20 mg/kg, p=0.0099): 29%; mean KW/BW ratio lower relative to PBS-treated mice (Pcy mice; 25 mg/kg, p=0.0055): 19%; BUN reduced relative to PBS-treated mice (Pcy mice; 25 mg/kg, p=0.0070): 16%; cyst index reduced compared to PBS (Pcy mice; 25 mg/kg, p=0.016): 34%
ASCSAMAFUFGFCMASCS [RG5124, reference compound] | did not reduce kidney weight to body weight ratio, cyst index, or BUN | did not result in statistically significant reductions | 1 | 1.2 | 2.6 | 1 | 0.7 | 1 | 86.67 mg/dL | 56.67 | 55.35 mg/g | 0.31 mg/dL | 21.2 | 0.23 | 21.4 | –
